# Source: ChEMBL document CHEMBL1926527, “Pharmacophore insights into rpoB gene mutations in Mycobacterium tuberculosis rifampicin resistant isolates” (2012)
# Legend:
# Assay type in all cases: functional
# [1] = test system: Mycobacterium tuberculosis; assay: Antimycobacterial activity against Mycobacterium tuberculosis isolate 352 expressing rpoB Asp516Leu and Phe514Phe double mutant gene by resazurin microtiter assay
# [2] = test system: Mycobacterium tuberculosis; assay: Antimycobacterial activity against Mycobacterium tuberculosis isolate 344 expressing rpoB Ser522Leu mutant gene by resazurin microtiter assay
# [3] = test system: Mycobacterium tuberculosis; assay: Antimycobacterial activity against Mycobacterium tuberculosis isolate 307 expressing rpoB Ser531Leu mutant gene by resazurin microtiter assay
# [4] = test system: Mycobacterium tuberculosis; assay: Antimycobacterial activity against Mycobacterium tuberculosis isolate 363 expressing rpoB Asp516Val mutant gene by resazurin microtiter assay
# [5] = test system: Mycobacterium tuberculosis; assay: Antimycobacterial activity against multidrug-resistant Mycobacterium tuberculosis clinical isolate obtained from tuberculosis patient infected in BALB/c mouse assessed as decrease in bacterial burden in lung at 5 mg/kg, po administered daily for 2 months measured after 1 month relative to untreated control
# [6] = test system: Mycobacterium tuberculosis; assay: Antimycobacterial activity against Mycobacterium tuberculosis isolate 309 expressing rpoB His526Arg mutant gene by resazurin microtiter assay
# [7] = test system: Mycobacterium tuberculosis; assay: Antimycobacterial activity against Mycobacterium tuberculosis isolate 311 expressing rpoB mutant gene by resazurin microtiter assay
# [8] = test system: Mycobacterium tuberculosis; assay: Antimycobacterial activity against Mycobacterium tuberculosis isolate 364 expressing rpoB Ser522Leu mutant gene by resazurin microtiter assay
# [9] = test system: Mycobacterium tuberculosis; assay: Antimycobacterial activity against Mycobacterium tuberculosis isolate 343 expressing rpoB Asp516Val mutant gene by resazurin microtiter assay
# [10] = test system: Mycobacterium tuberculosis; assay: Antimycobacterial activity against Mycobacterium tuberculosis isolate 80,014 expressing rpoB Arg529Lys and Leu530Met mutant gene by resazurin microtiter assay
# [11] = test system: Mycobacterium tuberculosis; assay: Antimycobacterial activity against multidrug-resistant Mycobacterium tuberculosis clinical isolate obtained from tuberculosis patient infected in BALB/c mouse assessed as decrease in bacterial burden in lung at 5 mg/kg, po administered daily for 2 months measured after 2 months; set-up: scale not given: the % may be the effect or the level left
# [12] = test system: Mycobacterium tuberculosis; assay: Antimycobacterial activity against Mycobacterium tuberculosis isolate 308 expressing rpoB His526Asp mutant gene by resazurin microtiter assay
# [13] = test system: Mycobacterium tuberculosis; assay: Antimycobacterial activity against multidrug-resistant Mycobacterium tuberculosis clinical isolate obtained from tuberculosis patient infected in BALB/c mouse assessed as decrease in surface area affected by pneumonia in lung at 5 mg/kg, po administered daily for 2 months measured after 2 months; set-up: scale not given: the % may be the effect or the level left
# [14] = test system: Mycobacterium tuberculosis; assay: Antimycobacterial activity against Mycobacterium tuberculosis isolate 349 expressing rpoB mutant gene by resazurin microtiter assay
SMILES,MIC [1] [µg/mL],MIC [2] [µg/mL],MIC [3] [µg/mL],MIC [4] [µg/mL],fold change (FC) [5],MIC [6] [µg/mL],MIC [7] [µg/mL],MIC [8] [µg/mL],MIC [9] [µg/mL],MIC [10] [µg/mL],Activity [11] [%],MIC [12] [µg/mL],Activity [13] [%],MIC [14] [µg/mL]
CO[C@H]1/C=C/O[C@@]2(C)Oc3c(C)c(O)c4c(c3C2=O)C2=NC3(CCN(CC(C)C)CC3)N(C(C)=O)C2=C(NC(=O)/C(C)=C\C=C\[C@H](C)[C@H](O)[C@@H](C)[C@@H](O)[C@@H](C)[C@H](OC(C)=O)[C@@H]1C)C4=O,1,0.06,2,0.06,>3,0.25,>2,0.25,>2,0.25,50,>2,30,2
CO[C@H]1/C=C/O[C@@]2(C)Oc3c(C)c(O)c4c(c3C2=O)C2=NC3(CCN(CC(C)C)CC3)NC2=C(NC(=O)/C(C)=C\C=C\[C@H](C)[C@H](O)[C@@H](C)[C@@H](O)[C@@H](C)[C@H](O)[C@@H]1C)C4=O,0.12,2,>2,1,–,0.25,>2,>2,>2,1,–,>2,–,>2
CCCCCCCCCCCCCCCC(=O)N1C2=C3NC(=O)/C(C)=C\C=C\[C@H](C)[C@H](O)[C@@H](C)[C@@H](O)[C@@H](C)[C@H](OC(C)=O)[C@H](C)[C@@H](OC)/C=C/O[C@@]4(C)Oc5c(C)c(O)c(c(c5C4=O)C2=NC12CCN(CC(C)C)CC2)C3=O,>2,>2,>2,>2,–,>2,>2,>2,>2,2,–,>2,–,>2
C=CCCCCCCCCC(=O)N1C2=C3NC(=O)/C(C)=C\C=C\[C@H](C)[C@H](O)[C@@H](C)[C@@H](O)[C@@H](C)[C@H](OC(C)=O)[C@H](C)[C@@H](OC)/C=C/O[C@@]4(C)Oc5c(C)c(O)c(c(c5C4=O)C2=NC12CCN(CC(C)C)CC2)C3=O,0.25,0.5,>2,0.25,>3,1,>2,2,2,0.5,50,>2,15,>2
CO[C@H]1/C=C/O[C@@]2(C)Oc3c(C)c(O)c4c(c3[C@H]2O)C2=NC3(CCN(CC(C)C)CC3)NC2=C(NC(=O)/C(C)=C\C=C\[C@H](C)[C@H](O)[C@@H](C)[C@@H](O)[C@@H](C)[C@H](O)[C@@H]1C)C4=O,0.5,>2,>2,>2,–,2,2,>2,>2,2,–,>2,–,>2
CO[C@H]1/C=C/O[C@@]2(C)Oc3c(C)c(O)c4c(c3[C@H]2O)C2=NC3(CCN(CC(C)C)CC3)N(C(C)=O)C2=C(NC(=O)/C(C)=C\C=C\[C@H](C)[C@H](O)[C@@H](C)[C@@H](O)[C@@H](C)[C@H](OC(C)=O)[C@@H]1C)C4=O,>2,0.5,>2,0.5,–,2,>2,>2,>2,0.5,–,>2,–,>2
CO[C@H]1/C=C/O[C@@]2(C)Oc3c(C)c(O)c4c(c3C2=O)C2=NC3(CCN(CC(C)C)CC3)NC2=C(NC(=O)/C(C)=C\C=C\[C@H](C)[C@H](O)[C@@H](C)[C@@H](O)[C@@H](C)[C@H](OC(C)=O)[C@@H]1C)C4=O [RIFABUTIN],<0.06,0.06,2,0.06,–,0.12,2,0.25,1,0.12,–,>2,–,1
CO[C@H]1/C=C/O[C@@]2(C)Oc3c(C)c(O)c4c(O)c(c(/C=N/N5CCN(C)CC5)c(O)c4c3C2=O)NC(=O)/C(C)=C\C=C\[C@H](C)[C@H](O)[C@@H](C)[C@@H](O)[C@@H](C)[C@H](OC(C)=O)[C@@H]1C [RIFAMPIN],>2,>2,>2,>2,–,0.06,>2,>2,>2,2,–,>2,–,>2
